Experiments:
[1] = tested on: Human immunodeficiency virus 1; experiment: MMV: HIV CXCR4-tropic env HxB2 pseudovirus assay produces luciferase signal in lieu of replicating viral particles Day 3 pi, U87-CD4-CXCR4, % inhibition at 5 mM compound; format: functional; design: dose or concentration left out as unconfirmed; details: Human immunodeficiency virus 1, HxB2, U87.CD4.CXCR4, 72 h
[2] = MMV: MTT Cytotoxicity Assay Day 3 pi, U87-CD4-CCR5 cells, % cell death @ 5mM compound; format: toxicity, cell-based; details: human, u87-cd4-ccr5, 5000 µM
[3] = MMV: MTT Cytotoxicity Assay Day 3 pi, U87-CD4-CXCR4 cells, % cell death @ 5mM compound; format: toxicity, cell-based; details: human, u87-cd4-cxcr4, 5000 µM
[4] = MMV: MTT Cytotoxicity Assay Day 7 pi of Assay #6 (compound washed out Day 1 pi), U87-CD4-CCR5 cells, % cell death @ 5mM compound; format: toxicity, cell-based; details: human, u87-cd4-ccr5, 5000 µM
[5] = MMV: MTT Cytotoxicity Assay Day 7 pi of Assay #7 (compound washed out Day 1 pi), U87-CD4-CXCR4 cells, % cell death @ 5mM compound; format: toxicity, cell-based; details: human, u87-cd4-cxcr4, 5000 µM
[6] = MMV: MTT Cytotoxicity Assay Day 7 pi of Assay #10 (NO washout), U87-CD4-CCR5 cells, % cell death @ 5mM compound; format: toxicity, cell-based; details: human, u87-cd4-ccr5, 5000 µM
[7] = MMV: MTT Cytotoxicity Assay Day 7 pi of Assay #11 (NO washout), U87-CD4-CXCR4 cells, % cell death @ 5mM compound; format: toxicity, cell-based; details: human, u87-cd4-cxcr4, 5000 µM
[8] = tested on: Human immunodeficiency virus 1; experiment: MMV: HIV CXCR4-tropic env NL4-3 pseudovirus assay produces luciferase signal in lieu of replicating viral particles Day 3 pi, U87-CD4-CXCR4, % inhibition at 5 mM compound; format: functional; design: dose or concentration left out as unconfirmed; details: Human immunodeficiency virus 1, NL4-3, U87.CD4.CXCR4, 72 h
[9] = tested on: Human immunodeficiency virus 1; experiment: MMV: HIV JRFL CCR5-tropic replication-competent virus, virus & compound washed out Day 1 pi, P24 ELISA Day 7 pi, U87-CD4-CCR5, % inhibition at 5 mM compound; format: functional; design: dose or concentration left out as unconfirmed; details: Human immunodeficiency virus 1, JR-FL

SMILES | inhibition [1] [%] | % Cell Death [2] | % Cell Death [3] | % Cell Death [4] | % Cell Death [5] | % Cell Death [6] | % Cell Death [7] | inhibition [8] [%] | inhibition [9] [%]
COc1ccc(/C=C2/SC(=Nc3ccccc3)NC2=O)cc1 | 3 | 54 | 28 | 93 | 77 | 115 | 66 | – | –
COc1cc(C(=O)Nc2nc3c(cc4c5c(cccc53)CC4)s2)cc(OC)c1OC | 0 | 105 | 56 | 42 | 68 | 136 | 110 | – | –
COc1ccc(-c2cc3c(SCC(=O)Nc4cc(C(F)(F)F)ccc4Cl)nccn3n2)cc1 | 6 | 24 | 41 | 5 | -22 | 18 | 13 | – | –
Cc1cc(NCCN2CCCCC2)c2ccc3ccccc3c2n1 | 1 | 64 | 34 | 30 | 16 | 31 | 5 | – | –
CCOC(=O)C1=C(C)N=c2sc(=Cc3ccccc3O)c(=O)n2C1c1ccc(OC)c2ccccc12 (stereo not drawn) | -1 | 105 | 42 | 40 | 66 | 90 | 113 | – | –
CCC(C)NCC(O)(c1ccc(Cl)cc1)c1ccc(Cl)cc1 (stereo not drawn) | – | -1 | 23 | -11 | -33 | 31 | 3 | 2 | -2
CCC1(C)CC(CCNCc2ccccc2O)(c2ccc(C)cc2)CCO1 (stereo not drawn) | 0 | -22 | 14 | 9 | 0 | 27 | 19 | – | –
COc1ccc(C=C2SC(Nc3ccc(F)cc3)=NC2=O)c(OC)c1 | 4 | 25 | 28 | -49 | 0 | 96 | 65 | – | –
Cc1ccc(C)c(Cn2c(N3CCC(C(=O)NCc4cccs4)CC3)nc3ccccc32)c1 | 7 | 108 | 38 | 57 | 2 | 98 | 47 | – | –
OC(CNC1CCCCC1)Cn1c2ccc(I)cc2c2cc(I)ccc21 (stereo not drawn) | 3 | 27 | 25 | 3 | -9 | -2 | 26 | – | 3
O=C(Nc1ccsc1C(=O)NC1CCCCC1)c1ccc(F)cc1 | – | -22 | 8 | -4 | -43 | -2 | -14 | 3 | -2
Cc1ccc(C2CC(C(F)(F)F)n3nc(C(=O)N4CCN(C(c5ccccc5)c5ccccc5)CC4)cc3N2)cc1 (stereo not drawn) | 5 | 86 | 64 | 77 | 62 | 75 | 58 | – | –
CC1CC(C)CN(C(=O)c2ccc(Cl)cc2Cl)C1 (stereo not drawn) | – | -5 | 31 | -14 | -16 | -31 | -51 | -1 | 5
COc1ccc2c(=O)cc(C(Cl)(Cl)Cl)oc2c1 | 8 | 90 | 41 | 23 | 23 | 100 | 95 | – | –
CC(C)(C)CC(C)(C)NCC(O)COc1ccc2c(c1)CCC2.Cl (stereo not drawn) | 4 | -4 | 10 | 2 | -11 | -10 | 7 | -1 | –
CCCCCCn1c(=N)n(CC(O)COc2cccc(C)c2)c2ccccc21.Cl (stereo not drawn) | 2 | 43 | 17 | 33 | -16 | 71 | 50 | – | –
O=C(NCc1ccco1)C1CCN(S(=O)(=O)c2ccc(Br)cc2)CC1 | 8 | 14 | 32 | 5 | -9 | -12 | -5 | – | –
COc1ccc(-c2nc3cc(Cc4ccc5[nH]c(-c6ccc(OC)cc6)nc5c4)ccc3[nH]2)cc1 | 1 | -6 | 23 | -21 | -21 | 4 | 6 | – | –
Oc1c(CN2CCN(c3ccccc3F)CC2)cc(Br)c2cccnc12 | 1 | 43 | 51 | 53 | 51 | 92 | 34 | – | –
CCOc1ccc(Nc2c3ccccc3nc3ccccc23)cc1.Cl | 5 | 47 | 1 | 34 | 42 | 43 | 95 | 2 | –
COc1ccc(C(=O)C2CC2c2ccc(Cl)cc2)cc1 (stereo not drawn) | – | 40 | 29 | 6 | 66 | 32 | 35 | -2 | 3
CCc1ccc(Nc2cc(C)nc3nc(C)nn23)cc1 | 6 | 23 | 46 | 4 | 4 | 50 | 93 | – | –
CCOC(=O)c1cnc2ccc(OC)cc2c1NCc1ccccc1 | -2 | -52 | 36 | -10 | 12 | -9 | 46 | – | –
CC(C)(C)c1ccc(C2CC3=Nc4ccccc4N(C(=O)c4ccccc4Cl)C(c4ccc(F)cc4)C3=C(O)C2)cc1 (stereo not drawn) | -1 | -12 | 31 | 8 | 17 | 28 | 5 | – | –
CCOC(=O)c1c[nH]c2c(CC)cccc2c1=O | – | 39 | 76 | 36 | 14 | -1 | 35 | 7 | 8
